The structures appear in SMILES notation.

The text below walks through data of EP3108883A1, “THERAPEUTIC USES OF NON-PEPTIDE INHIBITORS OF THE CALCINEURIN - NFAT SIGNALLING PATHWAY” (Fundació Institut de Recerca Biomèdica de Bellvitge, priority 2015, dated 2016).

In the test the target is CN (Homo sapiens, UniProt Q08209). As to the kind of experiment: In vitro CN phosphatase assay with pNPP as substrate. It counts as biochemical. The settings on record: ZnCl2 control at 50 µM. As to the method:
CN activity towards the pNPP substrate was measured as described (McAvoy, et al., in Current Protocols in Molecular Biology. (John Wiley & Sons, Inc., 2001), vol. 92, chap. 18, pp. 18). The CN phosphatase assay kit (ENZO Life Sciences, Farmingdale, NY) was used to assess the dephosphorylation of phosphoRII peptide by CN (Mulero et al., 2009, supra.). Potential immunosuppressant CN inhibitors should compete with NFATc for binding, without blocking the general phosphatase activity of CN. As an initial screening test, the phosphatase activity of CN was analyzed using the small molecule p-nitrophenil phosphate (pNPP) as substrate (see Material and Methods). […] The ability of compounds 1-32 in inhibiting CN-NFATc signaling was evaluated in human HEK 293T cells using a luciferase gene reporter assay that includes the NFATc-dependent IL2 promoter (3[…]). After 24 hours of treatment, 50 μM of compounds 6, 9, 17, 19, 23, 25 and 29 inhibit more than 75% NFATc activity, while compounds 1, 2, 4, 8, 10, 14, and 24 inhibit 50-75% NFATc activity (Fig. 2B).

Take `[Cl-].[Cl-].[Zn+2]` [ZnCl2]: the “CN phosphatase activity towards pNPP” value was “strongly inhibits enzymatic activity”.
